Results published in patent publication US20260232767A1, “INTERLEUKIN-23 RECEPTOR ANTAGONIST PEPTIDES FOR USE IN THE TREATMENT OF PSORIASIS” (Janssen Pharmaceutica NV, priority 2023, published 2026).

Tested on: subjects with moderate-to-severe plaque psoriasis
Test: Safety, adverse events, Example 2 through Week 56
Format: in vivo, human
Excerpt: The LTE safety analysis was based on randomized participants in Example who entered the present long-term extension study and received at least one dose of study intervention (including a partial dose) during the study period.

[1] = Placebo → 100 mg QD after crossover, through Week 56
[2] = Placebo → 100 mg QD, Week 16 through Week 56
[3] = Placebo → 100 mg QD, LTE Safety analysis set

CC(=O)NCCCC[C@@H]1NC(=O)[C@H](Cc2c[nH]c3c(C)cccc23)NC(=O)[C@H]([C@@H](C)O)NC(=O)[C@H](CC(N)=O)NC(=O)[C@@H](NC(C)=O)C(C)(C)SSC(C)(C)[C@@H](C(=O)N[C@@H](Cc2ccc(OCCN)cc2)C(=O)N[C@@H](Cc2ccc3ccccc3c2)C(=O)NC2(C(=O)N[C@@H](CCC(=O)O)C(=O)N[C@@H](CC(N)=O)C(=O)N[C@@H](Cc3cccnc3)C(=O)N(C)CC(N)=O)CCOCC2)NC1=O [IL-23 receptor antagonist peptide, Ac-[Pen]*-N-T-[W(7-Me)]-[Lys(Ac)]-[Pen]*-Phe[4-(2-aminoethoxy)]-[2-Nal]-[THP]-E-N-[3-Pal]-Sarc-NH2 (*[Pen]-[Pen]* formdisulfidebond)]
Seasonal allergy: number of subjects (Combined, through Week 56): 2 | Skin and subcutaneous tissue disorders: % of subjects (Combined, through Week 56): (6.5%) | Skin and subcutaneous tissue disorders: number of subjects (Combined, through Week 56): 16 | Skin laceration: % of subjects (Combined, through Week 56): (0.4%) | Skin laceration: number of subjects (Combined, through Week 56): 1 | Skin papilloma: % of subjects (Combined, through Week 56): (0.8%) | Skin papilloma: number of subjects (Combined, through Week 56): 2 | Social circumstances: % of subjects (Combined, through Week 56): (0.4%) | Social circumstances: number of subjects (Combined, through Week 56): 1 | Steatohepatitis: % of subjects (Combined, through Week 56): (0.4%) | Steatohepatitis: number of subjects (Combined, through Week 56): 1 | Suicide attempt: % of subjects (Combined, through Week 56): (0.4%) | Suicide attempt: number of subjects (Combined, through Week 56): 1 | Sunburn: % of subjects (Combined, through Week 56): (0.4%) | Sunburn: number of subjects (Combined, through Week 56): 1 | Thrombocytopenia: % of subjects (Combined, through Week 56): (0.4%) | Thrombocytopenia: number of subjects (Combined, through Week 56): 1 | Thrombocytosis: % of subjects (Combined, through Week 56): (0.4%) | Thrombocytosis: number of subjects (Combined, through Week 56): 1 | Tonsillar hypertrophy: % of subjects (Combined, through Week 56): (0.4%) | Tonsillar hypertrophy: number of subjects (Combined, through Week 56): 1 | Tooth fracture: % of subjects (Combined, through Week 56): (0.4%) | Tooth fracture: number of subjects (Combined, through Week 56): 1 | Type 2 diabetes mellitus: % of subjects (Combined, through Week 56): (0.4%) | Type 2 diabetes mellitus: number of subjects (Combined, through Week 56): 1 | Urinary tract disorder: % of subjects (Combined, through Week 56): (0.4%) | Urinary tract disorder: number of subjects (Combined, through Week 56): 1 | Uterine leiomyoma: % of subjects (Combined, through Week 56): (0.4%) | Uterine leiomyoma: number of subjects (Combined, through Week 56): 1 | Vascular disorders: % of subjects (Combined, through Week 56): (2.8%) | Vascular disorders: number of subjects (Combined, through Week 56): 7 | Ventricular dysfunction: % of subjects (Combined, through Week 56): (0.4%) | Ventricular dysfunction: number of subjects (Combined, through Week 56): 1 | Vertigo: % of subjects (Combined, through Week 56): (0.8%) | Vertigo: number of subjects (Combined, through Week 56): 2 | Vitamin D deficiency: % of subjects (Combined, through Week 56): (0.4%) | Vitamin D deficiency: number of subjects (Combined, through Week 56): 1 | Deaths (LTE study period): no deaths | Subjects with 1 or more treatment-emergent adverse events leading to discontinuation of study agent [1]: 0 | Subjects with AE leading to discontinuation: Abdominal discomfort [1]: 0 | Subjects with AE leading to discontinuation: Abdominal pain [1]: 0 | Subjects with AE leading to discontinuation: Alanine aminotransferase increased [1]: 0 | Subjects with AE leading to discontinuation: Aspartate aminotransferase increased [1]: 0 | Subjects with AE leading to discontinuation: Asthenia [1]: 0 | Subjects with AE leading to discontinuation: Chills [1]: 0 | Subjects with AE leading to discontinuation: Ear and labyrinth disorders [1]: 0 | Subjects with AE leading to discontinuation: Gamma-glutamyltransferase increased [1]: 0 | Subjects with AE leading to discontinuation: Gastrointestinal disorders [1]: 0 | Subjects with AE leading to discontinuation: General disorders and administration site conditions [1]: 0 | Subjects with AE leading to discontinuation: Headache [1]: 0 | Subjects with AE leading to discontinuation: Insomnia [1]: 0 | Subjects with AE leading to discontinuation: Investigations [1]: 0 | Subjects with AE leading to discontinuation: Nausea [1]: 0 | Subjects with AE leading to discontinuation: Nervous system disorders [1]: 0 | Subjects with AE leading to discontinuation: Proctalgia [1]: 0 | Subjects with AE leading to discontinuation: Psoriasis [1]: 0 | Subjects with AE leading to discontinuation: Psychiatric disorders [1]: 0 | Subjects with AE leading to discontinuation: Skin and subcutaneous tissue disorders [1]: 0 | Subjects with AE leading to discontinuation: Suicide attempt [1]: 0 | Subjects with AE leading to discontinuation: Transaminases increased [1]: 0 | Subjects with AE leading to discontinuation: Vertigo [1]: 0 | Subjects with AE leading to discontinuation: Vomiting [1]: 0 | Subjects with AE leading to discontinuation: Weight increased [1]: 0 | Subjects with treatment-emergent AE: Cough [1]: 0 | Subjects with treatment-emergent AE: Headache [1]: 0 | Subjects with treatment-emergent AE: Nasopharyngitis [1]: 9 | Subjects with treatment-emergent serious AE: COVID-19 [1]: 0 | Subjects with treatment-emergent serious AE: Cardiac disorders [1]: 0 | Subjects with treatment-emergent serious AE: Coronary artery disease [1]: 0 | Subjects with treatment-emergent serious AE: Diverticulitis [1]: 0 | Subjects with treatment-emergent serious AE: Foot deformity [1]: 0 | Subjects with treatment-emergent serious AE: General disorders and administration site conditions [1]: 0 | Subjects with treatment-emergent serious AE: Infected cyst [1]: 0 | Subjects with treatment-emergent serious AE: Infections and infestations [1]: 0 | Subjects with treatment-emergent serious AE: Injury, poisoning and procedural complications [1]: 0 | Subjects with treatment-emergent serious AE: Intervertebral disc protrusion [1]: 0 | Subjects with treatment-emergent serious AE: Ligament injury [1]: 0 | Subjects with treatment-emergent serious AE: Musculoskeletal and connective tissue disorders [1]: 0 | Subjects with treatment-emergent serious AE: Neoplasms benign, malignant and unspecified (incl cysts and polyps) [1]: 0 | Subjects with treatment-emergent serious AE: Non-cardiac chest pain [1]: 0 | Subjects with treatment-emergent serious AE: Psychiatric disorders [1]: 0 | Subjects with treatment-emergent serious AE: Respiratory, thoracic and mediastinal disorders [1]: 0 | Subjects with treatment-emergent serious AE: Suicide attempt [1]: 0 | Subjects with treatment-emergent serious AE: Tonsillar hypertrophy [1]: 0 | Subjects with treatment-emergent serious AE: Uterine leiomyoma [1]: 0 | Subjects with treatment-emergent serious AE: Ventricular dysfunction [1]: 0 | Number of subjects with treatment-emergent AE: Cholelithiasis [2]: 0 | Number of subjects with treatment-emergent AE: Ear and labyrinth disorders [2]: 0 | Number of subjects with treatment-emergent AE: Endocrine disorders [2]: 0 | Number of subjects with treatment-emergent AE: Eye disorders [2]: 2 | Number of subjects with treatment-emergent AE: Eyelid skin dryness [2]: 0 | Number of subjects with treatment-emergent AE: Goiter [2]: 0 | Number of subjects with treatment-emergent AE: Hepatobiliary disorders [2]: 1 | Number of subjects with treatment-emergent AE: Hypertransaminasemia [2]: 1 | Number of subjects with treatment-emergent AE: Immune system disorders [2]: 0 | Number of subjects with treatment-emergent AE: Insomnia [2]: 0 | Number of subjects with treatment-emergent AE: Ocular cyst [2]: 1 | Number of subjects with treatment-emergent AE: Psychiatric disorders [2]: 0 | Number of subjects with treatment-emergent AE: Retinal vein occlusion [2]: 1 | Number of subjects with treatment-emergent AE: Seasonal allergy [2]: 0 | Number of subjects with treatment-emergent AE: Vertigo [2]: 0 | Subjects with treatment-emergent AE: Eye disorders (%) [2]: (5.7%) | Subjects with treatment-emergent AE: Hepatobiliary disorders (%) [2]: (2.9%) | Subjects with treatment-emergent AE: Hypertransaminasemia (%) [2]: (2.9%) | Subjects with treatment-emergent AE: Ocular cyst (%) [2]: (2.9%) | Subjects with treatment-emergent AE: Retinal vein occlusion (%) [2]: (2.9%) | Subjects who discontinued study agent because of 1 or more adverse events [3]: 0 | Subjects with 1 or more Serious Infections and infestations [3]: 0 | Subjects with adverse event: Headache [3]: 0 | Subjects with adverse event: Meniscus injury [3]: 0 | Subjects with adverse event: Nasopharyngitis [3]: 9 | Subjects with adverse event: Sinusitis [3]: 0 | Subjects with adverse event: Vomiting [3]: 0 | Subjects with serious adverse event: Coronary artery disease [3]: 0 | Subjects with serious adverse event: Diverticulitis [3]: 0 | Subjects with serious adverse event: Foot deformity [3]: 0 | Subjects with serious adverse event: Intervertebral disc protrusion [3]: 0 | Subjects with serious adverse event: Ligament injury [3]: 0 | Subjects with serious adverse event: Non-cardiac chest pain [3]: 0 | Subjects with serious adverse event: Tonsillar hypertrophy [3]: 0 | Subjects with serious adverse event: Uterine leiomyoma [3]: 0
